US12594277B2, “Macrocyclic ULK1/2 inhibitors” (SALK INSTITUTE FOR BIOLOGICAL STUDIES, priority 2020, dated 2026)

Experiments:
[1] = target: T1, NanoLuc-ULK1 fusion in HEK293T cells (Homo sapiens, UniProt O75385); assay: ULK1 NanoBRET assay; type: cell-based; details: HEK293T transfected with NanoLuc-ULK1 Fusion Vector, Tracer K-5, 2 h incubation
T1 construct: host or cells: HEK293T
T1 sequence (O75385 1-1050): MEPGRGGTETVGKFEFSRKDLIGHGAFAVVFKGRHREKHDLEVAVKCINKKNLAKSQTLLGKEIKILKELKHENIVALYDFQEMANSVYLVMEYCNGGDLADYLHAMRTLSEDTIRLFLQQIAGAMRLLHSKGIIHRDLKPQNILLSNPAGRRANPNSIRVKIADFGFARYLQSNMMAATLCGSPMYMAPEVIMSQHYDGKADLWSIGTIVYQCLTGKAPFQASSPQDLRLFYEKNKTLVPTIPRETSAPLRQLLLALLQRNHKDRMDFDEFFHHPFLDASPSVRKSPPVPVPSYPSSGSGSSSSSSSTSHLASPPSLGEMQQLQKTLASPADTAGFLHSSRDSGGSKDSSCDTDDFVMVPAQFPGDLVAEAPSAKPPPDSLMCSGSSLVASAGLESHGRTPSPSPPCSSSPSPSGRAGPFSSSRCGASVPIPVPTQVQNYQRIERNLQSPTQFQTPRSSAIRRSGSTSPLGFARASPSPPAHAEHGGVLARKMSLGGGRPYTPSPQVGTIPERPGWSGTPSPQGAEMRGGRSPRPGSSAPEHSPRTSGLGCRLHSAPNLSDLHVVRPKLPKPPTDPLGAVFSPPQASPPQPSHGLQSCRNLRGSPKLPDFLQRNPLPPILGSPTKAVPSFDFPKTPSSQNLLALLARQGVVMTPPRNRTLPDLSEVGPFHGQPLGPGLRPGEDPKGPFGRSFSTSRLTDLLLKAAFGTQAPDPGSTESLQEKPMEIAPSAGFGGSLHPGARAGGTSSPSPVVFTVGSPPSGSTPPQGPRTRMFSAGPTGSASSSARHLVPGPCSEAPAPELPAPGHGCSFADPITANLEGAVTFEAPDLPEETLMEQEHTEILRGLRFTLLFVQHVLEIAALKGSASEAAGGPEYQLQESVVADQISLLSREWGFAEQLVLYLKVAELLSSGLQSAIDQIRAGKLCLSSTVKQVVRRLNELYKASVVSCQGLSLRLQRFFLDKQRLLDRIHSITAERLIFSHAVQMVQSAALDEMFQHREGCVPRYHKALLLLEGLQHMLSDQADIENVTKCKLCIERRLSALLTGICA
Protocol: IC50s were also measured by ULK1 NanoBRET assay according to the following protocol: Human embryonic kidney cells (HEK293T) were transfected with NanoLuc®-ULK1 Fusion Vector (Promega #NV2211) using jetPRIME transfection reagent (Polyplus Transfection #114-15). Following 24 h, cells were trypsinized and resuspended in Opti-MEM® I (1×), Reduced Serum Medium (Gibco, #11058-021). Approximately, 7,000 cells per well (in 34 μL total volume) were replated into non-binding surface 384 well plates. Complete NanoBRET 20× Tracer K-5 reagent was prepared according to the manufacturer's directions and 2 μL were added to each well of the 384 plate (assay plate). The assay plate was mixed on an orbital shaker for 15 seconds at 700 rpm. Compounds were serially diluted at 200× final concentration in […], then diluted to 10× final concentration in assay media (Opti-MEM® I, Reduced Serum Medium). Next, 4 μL 10× test compounds were added to each well of the assay plate, followed by mixing at 700 rpm for 15 seconds. The assay plate was incubated for 2 h in a 37 C incubator with […] and then equilibrated to RT for 15 min. The 3× Complete Substrate plus Inhibitor Solution was prepared according to the manufacturer's directions with a concentration of Extracellular NanoLuc® Inhibitor of 60 μM to be used at a working concentration of 20 μM. The 3× Complete Substrate plus Inhibitor Solution was mixed and 20 μL per well was added to the assay plate and incubated at RT for 2-3 min. Donor emission wavelength (450 nm) and acceptor emission wavelength (610 nm) were measured using an assay compatible luminometer (see manufacturer's specifications).

[2] = target: T2, recombinant human ULK1 protein (1-649) (Homo sapiens, UniProt O75385); assay: ULK1 inhibition assay (ADP-Glo); type: biochemical; details: 2 ug/mL ULK1, 80 ug/mL myelin basic protein, 25 uM ATP, assessed after one hour
T2 construct: recombinant human ULK1 protein (1-649, SignalChem #U01-11G); purchased SignalChem U01-11G
T2 sequence (O75385 1-649): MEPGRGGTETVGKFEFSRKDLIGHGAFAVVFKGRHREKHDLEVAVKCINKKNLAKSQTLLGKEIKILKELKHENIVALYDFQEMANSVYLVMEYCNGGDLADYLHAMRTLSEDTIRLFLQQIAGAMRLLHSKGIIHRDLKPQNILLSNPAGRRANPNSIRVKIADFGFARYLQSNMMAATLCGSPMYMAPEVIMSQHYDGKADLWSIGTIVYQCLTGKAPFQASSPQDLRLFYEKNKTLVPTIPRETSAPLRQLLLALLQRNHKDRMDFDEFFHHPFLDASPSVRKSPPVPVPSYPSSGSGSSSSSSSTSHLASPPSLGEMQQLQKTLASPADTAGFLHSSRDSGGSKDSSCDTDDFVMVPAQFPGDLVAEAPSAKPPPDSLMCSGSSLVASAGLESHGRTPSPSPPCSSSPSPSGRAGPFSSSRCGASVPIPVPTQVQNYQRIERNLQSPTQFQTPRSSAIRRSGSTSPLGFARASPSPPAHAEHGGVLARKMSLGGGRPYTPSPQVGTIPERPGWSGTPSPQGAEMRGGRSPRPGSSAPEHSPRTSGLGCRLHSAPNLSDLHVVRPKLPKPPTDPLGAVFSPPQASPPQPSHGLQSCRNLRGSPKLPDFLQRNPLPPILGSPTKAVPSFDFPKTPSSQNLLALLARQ
Protocol: IC50s measured by ADP-Glo assay are represented nM, with A representing IC50<20 nM, B representing IC50>20 nM. NT indicates the compound was not tested. ULK1 inhibition assays were performed in a 5 uL reaction volume containing 2 ug/mL recombinant human ULK1 protein (1-649, SignalChem #U01-11G) and 80 ug/mL myelin basic protein (MBP, Sigma-Aldrich #M1891) in the presence of 25 uM ATP (Sigma-Aldrich A7699). ULK 1 inhibition was assessed after one hour. Compounds were tested in triplicate in a 16-dose IC50 mode with 3-fold serial dilution and a starting dose of 30 uM. Staurosporine, a non-selective protein kinase inhibitor, was used in the assay as a positive control. Three separate experiments were carried out.

Work on `CNC(=O)c1cc2ccc1Nc1nc(ncc1C(F)(F)F)Nc1ccc(c(OC)c1)OCCCCCO2` [Compound 1, 1^3-Methoxy-N-methyl-3^5-(trifluoromethyl)-6,12-dioxa-2,4-diaza-3(2,4)-pyrimidina-1,5(1,4)-dibenzenacyclododecaphane-5^2-carboxamide] yielded an IC50 [1] greater than 1000 nM and an IC50 [2] of less than 20 nM.
Work on `C=CCCOc1ccc(Nc2nc(Nc3ccc(OCC=C)c(OC)c3)ncc2C(F)(F)F)c(C(=O)NC)c1` [Compound 2, 2-((2-((4-(Allyloxy)-3-methoxyphenyl)amino)-5-(trifluoromethyl)pyrimidin-4-yl)amino)-5-(but-3-en-1-yloxy)-N-methylbenzamide] yielded an IC50 [2] greater than 20 nM.
`CNC(=O)c1cc2ccc1Nc1nc(ncc1C(F)(F)F)Nc1ccc(c(OC)c1)OC/C=C/CCO2` [Compound 3, (E)-1^3-methoxy-N-methyl-3^5-(trifluoromethyl)-6,12-dioxa-2,4-diaza-3(2,4)-pyrimidina-1,5(1,4)-dibenzenacyclododecaphan-9-ene-5^2-carboxamide] showed an IC50 [1] of less than 1000 nM and an IC50 [2] greater than 20 nM.
For `CNC(=O)c1cc2ccc1Nc1nc(ncc1C(F)(F)F)Nc1ccc(c(OC)c1)OC/C=C\CCO2` [Compound 4, (Z)-1^3-methoxy-N-methyl-3^5-(trifluoromethyl)-6,12-dioxa-2,4-diaza-3(2,4)-pyrimidina-1,5(1,4)-dibenzenacyclododecaphan-9-ene-5^2-carboxamide], the IC50 [1] was less than 1000 nM and the IC50 [2] was greater than 20 nM.
`C=CCCCOc1ccc(Nc2nc(Nc3ccc(OCC=C)c(OC)c3)ncc2C(F)(F)F)c(C(=O)NC)c1` [Compound 5, 2-((2-((4-(Allyloxy)-3-methoxyphenyl)amino)-5-(trifluoromethyl)pyrimidin-4-yl)amino)-N-methyl-5-(pent-4-en-1-yloxy)benzamide] showed an IC50 [1] greater than 1000 nM and an IC50 [2] greater than 20 nM.
`CNC(=O)c1cc2ccc1Nc1nc(ncc1C(F)(F)F)Nc1ccc(c(OC)c1)OC/C=C/CCCO2` [Compound 6, (E/Z)-1^3-Methoxy-N-methyl-3^5-(trifluoromethyl)-6,13-dioxa-2,4-diaza-3(2,4)-pyrimidina-1,5(1,4)-dibenzenacyclotridecaphan-10-ene-5^2-carboxamide] was tested, and the IC50 [1] was less than 1000 nM and the IC50 [2] was less than 20 nM.
`CNC(=O)c1cc2ccc1Nc1nc(ncc1C(F)(F)F)Nc1ccc(c(OC)c1)OCCCCCCO2` [Compound 7, 1^3-Methoxy-N-methyl-3^5-(trifluoromethyl)-6,13-dioxa-2,4-diaza-3(2,4)-pyrimidina-1,5(1,4)-dibenzenacyclotridecaphane-5^2-carboxamide] gave an IC50 [2] of less than 20 nM.
`C=CCCOc1ccc(Nc2nc(Nc3ccc(OC)c(OCC=C)c3)ncc2C(F)(F)F)c(C(=O)NC)c1` [Compound 8, 2-((2-((3-(Allyloxy)-4-methoxyphenyl)amino)-5-(trifluoromethyl)pyrimidin-4-yl)amino)-5-(but-3-en-1-yloxy)-N-methylbenzamide] was tested, and the IC50 [2] was less than 20 nM.
`CNC(=O)c1cc2ccc1Nc1nc(ncc1C(F)(F)F)Nc1ccc(OC)c(c1)OC/C=C/CCO2` [Compound 9, (E/Z)-1^4-Methoxy-N-methyl-3^5-(trifluoromethyl)-6,12-dioxa-2,4-diaza-3(2,4)-pyrimidina-1(1,3),5(1,4)-dibenzenacyclododecaphan-9-ene-5^2-carboxamide] showed an IC50 [1] of less than 1000 nM and an IC50 [2] of less than 20 nM.
Work on `CNC(=O)c1cc2ccc1Nc1nc(ncc1C(F)(F)F)Nc1ccc(OC)c(c1)OCCCCCO2` [Compound 10, 1^4-Methoxy-N-methyl-3^5-(trifluoromethyl)-6,12-dioxa-2,4-diaza-3(2,4)-pyrimidina-1(1,3), 5(1,4)-dibenzenacyclododecaphane-5^2-carboxamide] yielded an IC50 [1] greater than 1000 nM and an IC50 [2] of less than 20 nM.
`C=CCCOc1ccc(Nc2nc(Nc3ccc(OCC=C)c(OC)c3)ncc2Br)c(C(=O)NC)c1` [Compound 11] showed an IC50 [2] greater than 20 nM.
In the case of `CNC(=O)c1ccc2cc1Nc1nc(ncc1C(F)(F)F)Nc1ccc(OC)c(c1)OC/C=C\CCCO2` [Compound 12, (E)-1^4-methoxy-N-methyl-35-(trifluoromethyl)-6,13-dioxa-2,4-diaza-3(2,4)-pyrimidina-1,5(1,3)-dibenzenacyclotridecaphan-10-ene-5^6-carboxamide], the IC50 [1] is reported as greater than 1000 nM and the IC50 [2] is reported as greater than 20 nM.
Molecule `CNC(=O)c1ccc2cc1Nc1nc(ncc1C(F)(F)F)Nc1ccc(OC)c(c1)OC/C=C/CCCO2` [Compound 13, (Z)-1^4-methoxy-N-methyl-35-(trifluoromethyl)-6,13-dioxa-2,4-diaza-3(2,4)-pyrimidina-1,5(1,3)-dibenzenacyclotridecaphan-10-ene-5^6-carboxamide] has an IC50 [1] greater than 1000 nM and an IC50 [2] greater than 20 nM.
In the case of `CNC(=O)c1ccc2cc1Nc1nc(ncc1C(F)(F)F)Nc1ccc(OC)c(c1)OCCCCCCO2` [Compound 14, 1^4-Methoxy-N-methyl-3^5-(trifluoromethyl)-6,13-dioxa-2,4-diaza-3(2,4)-pyrimidina-1,5(1,3)-dibenzenacyclotridecaphane-5^6-carboxamide], the IC50 [1] is reported as greater than 1000 nM and the IC50 [2] is reported as greater than 20 nM.
In the case of `CNC(=O)c1ccc2cc1Nc1nc(ncc1C(F)(F)F)Nc1ccc(c(OC)c1)OC/C=C/CCCO2` [Compound 15, (E)-5^3-methoxy-N-methyl-3^5-(trifluoromethyl)-6,13-dioxa-2,4-diaza-3(4,2)-pyrimidina-1(1,3),5(1,4)-dibenzenacyclotridecaphan-8-ene-1^6-carboxamide], the IC50 [1] is reported as greater than 1000 nM and the IC50 [2] is reported as greater than 20 nM.
In the case of `CNC(=O)c1ccc2cc1Nc1nc(ncc1C(F)(F)F)Nc1ccc(c(OC)c1)OC/C=C\CCCO2` [Compound 16, (Z)-5^3-methoxy-N-methyl-3^5-(trifluoromethyl)-6,13-dioxa-2,4-diaza-3(4,2)-pyrimidina-1(1,3),5(1,4)-dibenzenacyclotridecaphan-8-ene-1^6-carboxamide], the IC50 [1] is reported as greater than 1000 nM and the IC50 [2] is reported as greater than 20 nM.
